Measurements taken from patent US8603537B2, “Prasugrel containing quickly released stable oral pharmaceutical compositions” (Egis Pharmaceuticals PLC, priority 2012, dated 2013).
Counter-ions that a name gives are not always drawn.

Columns and labels:
[1] = Solubility of prasugrel base and prasugrel HCl at different pH values; type: physicochemical
Text: According to the examples of WO 2008/073759 prasugrel containing pharmaceutical compositions are stabilized by storing the tablets in air-and waterproof packaging. According to WO 2006/135605 the decomposition of prasugrel containing compositions can be reduced in air- and moisture-proof blister filled with inert gas. […] This fact is substantiated by the following Table. It can be seen from the above Table that the solubility of the hydrochloric acid salt of prasugrel is much higher than that of the prasugrel base even in the pH range between 4.5 and 6.8

platelet aggregation = settings: administered in the same dose, EP 1 298 132 B1; cited from earlier work
[2] = Storage stability of prasugrel base, related substances by HPLC; type: physicochemical
Text: Contrary to the teaching of WO 2011/098536a stable product of appropriate bioavailability is obtained.

[3] = EP 2415 774; cited from earlier work
[4] = 25 ± 2° C. 60 ± 5% RH, 2 months
[5] = 25 ± 2° C. 60 ± 5% RH, 3 months
[6] = 25 ± 2° C. 60 ± 5% RH, 6 months
[7] = 40 ± 2° C. 75 ± 5% RH, 2 months
[8] = 40 ± 2° C. 75 ± 5% RH, 3 months
[9] = 40 ± 2° C. 75 ± 5% RH, 6 months

## CC(=O)Oc1cc2c(s1)CCN(C(C(=O)C1CC1)c1ccccc1F)C2 (centres unmarked) [prasugrel HCl]
[1]; pH 1
  Solubility: 7.8 g/100 ml
[1]; pH 4.5
  Solubility: 0.032 g/100 ml
[1]; pH 6.8
  Solubility: 0.007 g/100 ml
Platelet aggregation
  Platelet aggregation inhibitory effect compared with the base: almost twice higher

## CC(=O)Oc1cc2c(s1)CCN(C(C(=O)C1CC1)c1ccccc1F)C2 (centres unmarked) [prasugrel base, 5-/2-cyclopropyl-1-(2-fluoro-phenyl)-2-oxoethyl/-4,5,6,7-tetrahydrothieno/3.2-c/-pyridine-2-yl-acetate]
[2]; 25 ± 2° C. 60 ± 5% RH, 1 month
  Related substances by HPLC: Any identified impurity, each: 0.05%
  Related substances by HPLC: Any unidentified impurity: <0.05%
  Related substances by HPLC: Dezacetyl impurity: <0.05%
  Related substances by HPLC: Sum of impurities: 0.05%
[2]; [4]
  Related substances by HPLC: Any identified impurity, each: 0.07%
  Related substances by HPLC: Any unidentified impurity: <0.05%
  Related substances by HPLC: Dezacetyl impurity: <0.05%
  Related substances by HPLC: Sum of impurities: 0.07%
[2]; [5]
  Related substances by HPLC: Any identified impurity, each: <0.05%
  Related substances by HPLC: Any unidentified impurity: <0.05%
  Related substances by HPLC: Dezacetyl impurity: <0.05%
  Related substances by HPLC: Sum of impurities: <0.05%
[2]; [6]
  Related substances by HPLC: Any identified impurity, each: <0.05%
  Related substances by HPLC: Any unidentified impurity: <0.05%
  Related substances by HPLC: Dezacetyl impurity: <0.05%
  Related substances by HPLC: Sum of impurities: <0.05%
[2]; 25 ± 2° C. 60 ± 5% RH, Initial
  Related substances by HPLC: Any identified impurity, each: <0.05%
  Related substances by HPLC: Any unidentified impurity: <0.05%
  Related substances by HPLC: Dezacetyl impurity: <0.05%
  Related substances by HPLC: Sum of impurities: <0.05%
[2]; 40 ± 2° C. 75 ± 5% RH, 1 month
  Related substances by HPLC: Any identified impurity, each: <0.05%
  Related substances by HPLC: Any unidentified impurity: <0.05%
  Related substances by HPLC: Dezacetyl impurity: <0.05%
  Related substances by HPLC: Sum of impurities: <0.05%
[2]; [7]
  Related substances by HPLC: Any identified impurity, each: 0.05%
  Related substances by HPLC: Any unidentified impurity: <0.05%
  Related substances by HPLC: Dezacetyl impurity: <0.05%
  Related substances by HPLC: Sum of impurities: 0.05%
[2]; [8]
  Related substances by HPLC: Any identified impurity, each: <0.05%
  Related substances by HPLC: Any unidentified impurity: <0.05%
  Related substances by HPLC: Dezacetyl impurity: <0.05%
  Related substances by HPLC: Sum of impurities: <0.05%
[2]; [9]
  Related substances by HPLC: Any identified impurity, each: <0.05%
  Related substances by HPLC: Any unidentified impurity: <0.05%
  Related substances by HPLC: Dezacetyl impurity: <0.05%
  Related substances by HPLC: Sum of impurities: <0.05%
[2]; 40 ± 2° C. 75 ± 5% RH, Initial
  Related substances by HPLC: Any identified impurity, each: <0.05%
  Related substances by HPLC: Any unidentified impurity: <0.05%
  Related substances by HPLC: Dezacetyl impurity: <0.05%
  Related substances by HPLC: Sum of impurities: <0.05%
[2]; storage period of 6 months
  Stability of the base per se on storage: remains stable
[1]; Water
  Solubility: 0.0009 g/100 ml
[1]; pH 1
  Solubility: 2.8 g/100 ml
[1]; pH 4.5
  Solubility: 0.0035 g/100 ml
[1]; pH 6.8
  Solubility: 0.001 g/100 ml

## CC(=O)Oc1cc2c(s1)CCN(C(C(=O)C1CC1)c1ccccc1F)C2 (centres unmarked) [hydrogen bromide salt]
[3]
  Solubility in 0.1N hydrochloric acid compared with the hydrochloric acid salt: more readily soluble
